According to patent US20220064196A1, “EGFR Inhibitors, Compositions and Methods Thereof” (Betta Pharmaceuticals Co., Ltd., priority 2019, published 2022):
Counter-ions that a name gives are not always drawn. Like-named read-outs stand apart in the source and are kept apart here.

Assays:
[1] = Pharmacokinetic assay, oral administration; type: in vivo; conditions: rat, male SD rats, p.o. 5 mg/kg, plasma, formulation differs per row
Experimental: Test 5 Pharmacokinetic Assay
Male SD rats, oral administration (intragastric administration), 3 in each group. Animals administered by gavage were fasted overnight before the experiment, and the fasting time was from at least 12 hours before administration to 4 hours after administration. The blood was collected using the orbital vein. Time of blood collection by oral administration: 15 min, 30 min, 1 h, 2 h, 4 h, 7 h, 24 h. The blood collection volume was 300 uL, and after anticoagulation with 2.0% EDTA, the blood was centrifuged at 4000 rpm for 5 min, and the blood plasma was taken for about 100 uL, and placed in −20° C. for examination. The plasma sample was analyzed using liquid chromatography tandem mass spectrometry (LC-MS/MS). Plasma concentration-time data for individual animals were analyzed using WinNonlin (V4.1, Pharsight) software with a non-compartmental model and the pharmacokinetic parameters of the test compounds were calculated.

EGFR L858R/T790M/C797S = EGFR L858R/T790M/C797S (Homo sapiens, UniProt P00533, C797S/L858R/T790M); assay: Kinase assay (mobility shift), EGFR L858R/T790M/C797S; type: biochemical; conditions: numeric values
Chain of EGFR L858R/T790M/C797S (P00533 25-1210 T790M/C797S/L858R): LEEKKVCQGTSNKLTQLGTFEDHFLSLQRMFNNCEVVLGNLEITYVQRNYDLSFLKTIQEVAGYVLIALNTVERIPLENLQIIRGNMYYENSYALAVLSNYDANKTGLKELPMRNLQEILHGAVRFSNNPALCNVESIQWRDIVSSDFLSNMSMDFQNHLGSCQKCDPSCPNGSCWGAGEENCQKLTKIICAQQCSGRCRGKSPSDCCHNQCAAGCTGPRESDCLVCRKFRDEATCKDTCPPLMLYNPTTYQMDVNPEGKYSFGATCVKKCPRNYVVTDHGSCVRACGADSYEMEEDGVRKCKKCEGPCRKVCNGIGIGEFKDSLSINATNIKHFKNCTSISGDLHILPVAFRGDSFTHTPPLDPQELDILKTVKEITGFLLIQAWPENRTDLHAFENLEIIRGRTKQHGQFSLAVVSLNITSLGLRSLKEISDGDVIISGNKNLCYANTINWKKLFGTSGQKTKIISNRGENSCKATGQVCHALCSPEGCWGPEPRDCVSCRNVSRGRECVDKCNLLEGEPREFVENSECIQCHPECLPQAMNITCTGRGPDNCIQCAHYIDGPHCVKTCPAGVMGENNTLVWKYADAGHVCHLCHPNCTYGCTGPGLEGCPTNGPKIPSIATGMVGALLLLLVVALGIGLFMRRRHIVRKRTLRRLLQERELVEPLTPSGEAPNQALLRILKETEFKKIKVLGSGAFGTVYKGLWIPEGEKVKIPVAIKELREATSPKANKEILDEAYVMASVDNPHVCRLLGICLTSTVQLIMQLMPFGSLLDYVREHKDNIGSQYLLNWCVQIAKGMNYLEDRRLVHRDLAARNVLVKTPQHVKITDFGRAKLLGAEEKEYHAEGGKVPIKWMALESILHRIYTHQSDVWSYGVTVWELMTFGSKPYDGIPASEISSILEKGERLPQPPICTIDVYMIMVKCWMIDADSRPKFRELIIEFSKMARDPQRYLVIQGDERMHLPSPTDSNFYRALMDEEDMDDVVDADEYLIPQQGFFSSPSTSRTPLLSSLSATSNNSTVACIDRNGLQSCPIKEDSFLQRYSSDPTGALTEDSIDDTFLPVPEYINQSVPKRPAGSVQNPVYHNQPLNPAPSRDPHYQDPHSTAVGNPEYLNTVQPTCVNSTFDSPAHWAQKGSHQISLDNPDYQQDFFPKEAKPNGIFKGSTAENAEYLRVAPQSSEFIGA
Experimental: [Worded in the source for another variant; this variant is reported under the same test.] Test 1 Kinase Assay for EGFR Del19/T790M/C797S and EGFR Wildtype
Enzyme reaction protocol are as follows:
1. Preparing 1* Kinase buffer as followed.
2. Preparing Compound Concentration Gradient: Compounds were tested at a concentration of 300 nM, diluted to 100-fold final concentration in 100% DMSO solution in 96-well plates, and compounds were diluted 3 times with Precision, 10 concentrations. Each concentration of the compound was then further diluted to a 5-fold final concentration of the intermediate dilution solution using 1* Kinase buffer.
3.5 μL of each of the prepared intermediate dilution compounds was separately added to the compound wells of the 384-well plate, and each concentration was tested for duplicate wells; 5 μL of 5% DMSO was added to the negative control wells and the positive control wells, respectively.
4. 2.5-fold final concentration of the kinase solution was prepared using 1*Kinase buffer.
5. Add 10 μL of 2.5-fold final concentration of kinase solution to the compound well and positive control well; add 10 μL of 1*Kinase buffer to the negative control well.
6. Centrifuge at 1000 rpm for 30 seconds, shake the reaction plate and incubate for 10 minutes at room temperature.
7. A mixed solution of 2.5 times the final concentration of ATP and Kinase substrate (5-FAM-EEPLYWSFPAKKK-CONH2) was prepared using 1*Kinase buffer.
8. 10 μL of a 2.5-fold final concentration of a mixed solution of ATP and a substrate was added to initiate the reaction.
9. Centrifuge the 384-well plate at 1000 rpm for 30 seconds, mix by shaking, and incubate at room temperature for the corresponding time.
10. Add 30 μL of the stop solution to stop the kinase reaction, centrifuge at 1000 rpm for 30 seconds, and mix by shaking.
11. Read the conversion rate with Caliper EZ Reader.
Convert conversion values to inhibition values:
Percent inhibition 32 (max-conversion)/(max-min)*100.
“max” stands for the mean value of the positive control well ratio; “min” stands for the mean value of the negative control well.
Fit the data in log(inhibitor) vs. response Variable slope of GraphPad Prism 5 to obtain IC50 values.
Equation used is: Y=Bottom+(Top-Bottom)/(1+(IC50/X)^HillSlope)

Ba/F3-Del19/T790M/C797S = Ba/F3-Del19/T790M/C797S (Homo sapiens, UniProt P00533, T790M/C797S, cells depend on it, form not given); assay: Ba/F3-Del19/T790M/C797S cells proliferation assay (CellTiter Glo); type: cell-based; conditions: cell proliferation, 72 h, read-out: Ba/F3-Del19/T790M/C797S IC50
Chain of Ba/F3-Del19/T790M/C797S (P00533 with tags, fused parts or gaps DEL746-750/T790M/C797S, form open): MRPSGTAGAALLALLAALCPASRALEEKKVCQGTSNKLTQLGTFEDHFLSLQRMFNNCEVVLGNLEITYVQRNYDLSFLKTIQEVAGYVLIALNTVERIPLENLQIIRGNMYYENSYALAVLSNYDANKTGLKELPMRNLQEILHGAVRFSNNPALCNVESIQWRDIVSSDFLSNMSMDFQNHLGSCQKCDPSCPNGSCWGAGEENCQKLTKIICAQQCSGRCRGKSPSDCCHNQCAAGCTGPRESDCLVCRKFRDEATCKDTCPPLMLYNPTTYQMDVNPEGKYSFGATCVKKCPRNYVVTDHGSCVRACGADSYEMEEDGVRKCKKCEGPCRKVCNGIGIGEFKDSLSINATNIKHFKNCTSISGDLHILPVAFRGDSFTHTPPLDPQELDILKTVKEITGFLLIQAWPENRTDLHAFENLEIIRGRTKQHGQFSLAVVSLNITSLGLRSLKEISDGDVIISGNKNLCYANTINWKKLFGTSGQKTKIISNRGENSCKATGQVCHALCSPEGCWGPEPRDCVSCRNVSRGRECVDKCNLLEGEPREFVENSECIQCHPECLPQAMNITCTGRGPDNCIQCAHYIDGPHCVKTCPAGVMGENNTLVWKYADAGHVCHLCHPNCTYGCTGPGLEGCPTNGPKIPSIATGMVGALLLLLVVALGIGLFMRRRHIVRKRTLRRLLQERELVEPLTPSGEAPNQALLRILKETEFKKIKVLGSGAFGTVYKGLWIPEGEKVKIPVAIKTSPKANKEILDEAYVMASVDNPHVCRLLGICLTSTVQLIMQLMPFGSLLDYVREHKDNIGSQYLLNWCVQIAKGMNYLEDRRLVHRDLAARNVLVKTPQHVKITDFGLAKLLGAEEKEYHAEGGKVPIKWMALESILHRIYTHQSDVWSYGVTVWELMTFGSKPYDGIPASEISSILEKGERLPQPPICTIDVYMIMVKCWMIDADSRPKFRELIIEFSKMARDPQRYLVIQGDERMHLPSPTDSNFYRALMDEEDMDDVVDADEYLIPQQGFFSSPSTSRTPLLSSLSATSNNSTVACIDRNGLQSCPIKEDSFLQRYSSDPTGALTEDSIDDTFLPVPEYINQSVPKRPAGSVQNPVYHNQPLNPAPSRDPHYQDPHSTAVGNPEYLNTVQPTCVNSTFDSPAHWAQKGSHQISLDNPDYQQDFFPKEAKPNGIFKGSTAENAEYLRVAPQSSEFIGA
Experimental: (§1) a) The medium was preheated in a 37°0 C. water bath in advance.
(§2) b) Remove the cryogenic vials from the liquid nitrogen tank, quickly put it into a 37° C. water bath, and completely melt it in 1 min.
(§3) c) Transfer the cell suspension to a 15 mL centrifuge tube containing 8 mL medium, centrifuge 1000 rpm, 5 min.
(§4) d) Discard the supernatant, resuspend the cells in 1 mL medium, and transfer to a 75 cm^2 flask containing 15 mL medium, culture the cells in an incubator at 37° C., 5% CO2.
(§5) a) The medium was preheated in a 37° C. water bath in advance.
(§6) b) Collect cell to a 15 mL centrifuged tube, centrifuge at 1000 rpm for 5 min. Discard the supernatant, count, and make the cell density at 1×10^4 cells/mL, then place it in a 37° C., 5% CO2 incubator.
(§7) a) The test compound (20 mM stock solution) was diluted to 200uM with 100% DMSO as starting concentration then 3-fold serial diluted with “9+0” concentrations. in a 96-well dilution plate (Cat # P-05525, Labcyte);
(§8) b) The above compound solution was diluted 1:20 times with culture medium to prepare a 10 fold working solution;
(§9) a) Take cells in log phase growth, centrifuge at 1000 rpm for 5 min, then resuspend the cells with culture medium, then count cells;
(§10) b) Cells were seeded to 96-well cell culture plate with density at 2000 cells/well;
(§11) a) Compounds prepared at step 2 were added to cell plate with 15 μL per well, the final concentrations were 1000,333, 111.1, 37,12.3, 4.1, 1.4, 0.5, 0.2 and 0 nM, and the final concentration of DMSO was 0.5%. The blank control well was a culture medium (0.5% DMSO);
(§12) b) The cells were incubated for an additional 72 h in the incubator.
(§13) a) Remove the 96-well cell culture plate and add 50 μl of CTG reagent (CellTiter Glo kit, promega, Cat # G7573).
(§14) b) Plate was shaked for 2 min and then let it cool for 10 min at room temperature.
(§15) c) The Luminescence signal value was read using a PerkinElmer reader. Experimental data analysis
(§16) Data were analyzed using GraphPad Prism 6.0 software to obtain a fitted curve of compound activity.
(§17) Fit the Compound IC50 from non-linear regression equation:
(§18) Y=Bottom+(Top-Bottom)/(1+10((LogIC50-X)×Hill Slope));
(§19) X: The log of the concentration of the compound; Y: Luminescence value.
(§20) The cells proliferation assay results are expressed with IC50, shown as Table 2.

Ba/F3-L858R/T790M/C797S = Ba/F3-L858R/T790M/C797S (Homo sapiens, UniProt P00533, T790M/C797S/L858R, cells depend on it); assay: Ba/F3-L858R/T790M/C797S cells proliferation assay (CellTiter Glo); type: cell-based; conditions: cell proliferation, 72 h, read-out: Ba/F3-L858R/T790M/C797S IC50
Chain of Ba/F3-L858R/T790M/C797S (P00533 whole entry T790M/C797S/L858R): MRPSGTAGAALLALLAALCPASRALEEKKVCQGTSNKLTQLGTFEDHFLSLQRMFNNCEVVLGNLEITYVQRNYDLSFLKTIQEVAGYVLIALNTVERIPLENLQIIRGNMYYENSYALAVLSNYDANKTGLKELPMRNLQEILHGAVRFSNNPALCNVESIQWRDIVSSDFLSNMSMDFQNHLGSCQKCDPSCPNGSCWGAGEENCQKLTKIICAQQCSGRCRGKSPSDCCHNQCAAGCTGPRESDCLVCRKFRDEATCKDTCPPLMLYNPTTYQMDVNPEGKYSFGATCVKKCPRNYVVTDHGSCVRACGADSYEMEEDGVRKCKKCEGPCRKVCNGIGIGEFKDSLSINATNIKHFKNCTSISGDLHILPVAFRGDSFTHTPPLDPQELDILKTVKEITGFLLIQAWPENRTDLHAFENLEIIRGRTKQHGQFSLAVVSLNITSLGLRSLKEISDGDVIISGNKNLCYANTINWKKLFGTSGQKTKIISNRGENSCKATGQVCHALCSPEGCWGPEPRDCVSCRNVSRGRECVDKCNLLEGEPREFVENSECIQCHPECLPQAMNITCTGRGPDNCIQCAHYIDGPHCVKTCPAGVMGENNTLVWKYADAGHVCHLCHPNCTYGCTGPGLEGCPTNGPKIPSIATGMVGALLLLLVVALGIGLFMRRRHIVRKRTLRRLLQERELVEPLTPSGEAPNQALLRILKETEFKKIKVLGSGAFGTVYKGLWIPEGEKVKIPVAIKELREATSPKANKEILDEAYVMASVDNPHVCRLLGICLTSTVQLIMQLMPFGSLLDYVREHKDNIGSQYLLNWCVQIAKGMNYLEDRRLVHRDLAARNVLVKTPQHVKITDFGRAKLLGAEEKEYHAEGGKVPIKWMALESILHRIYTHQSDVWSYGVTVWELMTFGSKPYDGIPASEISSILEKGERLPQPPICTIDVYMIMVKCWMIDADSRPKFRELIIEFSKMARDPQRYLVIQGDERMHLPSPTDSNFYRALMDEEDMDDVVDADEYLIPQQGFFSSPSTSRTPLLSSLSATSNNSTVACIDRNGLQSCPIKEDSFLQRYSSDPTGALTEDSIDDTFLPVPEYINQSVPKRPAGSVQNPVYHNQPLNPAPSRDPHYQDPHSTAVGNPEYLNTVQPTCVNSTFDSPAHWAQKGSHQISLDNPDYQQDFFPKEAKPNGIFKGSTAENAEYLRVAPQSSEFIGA
Experimental: as §1, §2, §3, §4, §5, §6, §7, §8, §9, §10, §11, §12, §13, §14, §15, §16, §17, §18, §19, §20

A431 (WT) = assay: A431 cells proliferation assay (CellTiter Glo); type: cell-based; conditions: Homo sapiens, A-431; cell proliferation, 72 h
Experimental: Test 4 A431 Cells Proliferation Assay
DMEM and 10% FBS and 1% PS.
as §5, §2, §3, §4, §6
a) The test compound (20 mM stock solution) was diluted to 2 mM with 100% DMSO as starting concentration then 3-fold serial diluted with “9+0” concentrations. in a 96-well dilution plate (Cat # P-05525, Labcyte);
b) The above compound solution was diluted 1:40 times with culture medium to prepare a 5 fold working solution;
as §9
b) Cells were seeded to 96-well cell culture plate with density at 5000 cells/well;
a) Compounds prepared at step 2 were added to cell plate with 40 μL per well, the final concentrations were 10000, 3333,1111.1, 370.4, 123.5, 41.2, 13.7, 4.6, 1.5 and 0 nM, and the final concentration of DMSO was 0.5%. The blank control well was a culture medium (0.5% DMSO);
as §12
a) Remove the 96-well cell culture plate and add 60 μl of CTG reagent (CellTiter Glo kit, promega, Cat # G7573).
as §14
c) The Luminescence signal value was read using a PerkinElmer reader.
Experimental Data Analysis
as §16, §17
Y=Bottom+(Top-Bottom)/(1+10((LogIC50-X)×HillSlope));
as §19
The cells proliferation assay results are expressed with IC50, shown as Table 3.

Structure (SMILES) | AUC(0-t) [1] [ng·h/mL] | Cmax [1] [ng/mL] | Tmax [1] [h] | half-life [1] [h] | IC50 (EGFR L858R/T790M/C797S) [nM] | GI50 (Ba/F3-Del19/T790M/C797S; class symbols) [nM] | GI50 (Ba/F3-L858R/T790M/C797S; class symbols) [nM] | IC50 (A431 (WT)) [nM] | GI50 (Ba/F3-Del19/T790M/C797S; numeric values) [nM] | GI50 (Ba/F3-L858R/T790M/C797S; numeric values) [nM]
CCN1CC2(C1)CN(c1ccc(Nc3ncc(Cl)c(Nc4ccccc4P(C)(C)=O)n3)cc1C)C2 [Comparative compound B, (2-((5-chloro-2-((4-(6-ethyl-2,6-diazaspiro[3.3]heptan-2-yl)-3-methylphenyl)amino)pyrimidin-4-yl)amino)phenyl)dimethylphosphine oxide, reference compound] | 202 | 67.2 | 2.75 | 4.09 | – | – | – | – | – | –
Cc1cc(Nc2ncc(Cl)c(Nc3ccccc3P(C)(C)=O)n2)ccc1N1CC2(CCC(N)CC2)C1 [Example 3, (2-((2-((4-(7-amino-2-azaspiro[3.5]nonan-2-yl)-3-methylphenyl)amino)-5-chloropyrimidin-4-yl)amino)phenyl)dimethylphosphine oxide] | – | – | – | – | 2.8 | 10 to 50 | 10 to 50 | – | – | –
CN(C)C1CCC2(CC1)CN(c1ccc(Nc3ncc(Cl)c(Nc4ccccc4P(C)(C)=O)n3)cc1C1CC1)C2 [Example 5, (2-((5-chloro-2-((3-cyclopropyl-4-(7-(dimethylamino)-2-azaspiro[3.5]nonan-2-yl)phenyl)amino)pyrimidin-4-yl)amino)phenyl)dimethylphosphine oxide] | – | – | – | – | 1.5 | 10 to 50 | 10 to 50 | – | – | –
CN(C)C1CC2(CCN(c3ccc(Nc4nccc(Nc5ccccc5P(C)(C)=O)n4)cc3Cl)CC2)C1 [Example 7, (2-((2-((3-chloro-4-(2-(dimethylamino)-7-azaspiro[3.5]nonan-7-yl)phenyl)amino)pyrimidin-4-yl)amino)phenyl)dimethylphosphine oxide] | – | – | – | – | 7.8 | > 50 | > 50 | 341 | – | –
CP(C)(=O)c1ccccc1Nc1ccnc(Nc2ccc(N3CCC4(CC3)CC(N)C4)c(Cl)c2)n1 [Example 9, (2-((2-((4-(2-amino-7-azaspiro[3.5]nonan-7-yl)-3-chlorophenyl)amino)pyrimidin-4-yl)amino)phenyl)dimethylphosphine oxide] | – | – | – | – | 11 | > 50 | > 50 | – | – | –
CN(C)C1CCC2(CC1)CN(c1ccc(Nc3ncc(Cl)c(Nc4ccccc4P(C)(C)=O)n3)cc1Cl)C2 [Example 10, (2-((5-chloro-2-((3-chloro-4-(7-(dimethylamino)-2-azaspiro[3.5]nonan-2-yl)phenyl)amino)pyrimidin-4-yl)amino)phenyl)dimethylphosphine oxide] | 443 | 35.1 | 4 | 9.06 | 0.7 | – | – | 41.6 | 10.2 | 24.7
CP(C)(=O)c1ccccc1Nc1nc(Nc2ccc(N3CC4(CCC(N)CC4)C3)c(Cl)c2)ncc1Cl [Example 11, (2-((2-((4-(7-amino-2-azaspiro[3.5]nonan-2-yl)-3-chlorophenyl)amino)-5-chloropyrimidin-4-yl)amino)phenyl)dimethylphosphine oxide] | – | – | – | – | 2.6 | – | 10 to 50 | – | 26.3 | –
CP(C)(=O)c1ccccc1Nc1nc(Nc2ccc(N3CCC4(CC3)CC(N)C4)cc2)ncc1Cl [Example 16, (2-((2-((4-(2-amino-7-azaspiro[3.5]nonan-7-yl)phenyl)amino)-5-chloropyrimidin-4-yl)amino)phenyl)dimethylphosphine oxide hydrochloride] | – | – | – | – | – | – | – | – | 8 | 6.9
CP(C)(=O)c1ccccc1Nc1nc(Nc2ccc(N3CCC4(CC3)CC(N)C4)c(C(F)(F)F)c2)ncc1Cl [Example 18, (2-((2-((4-(2-amino-7-azaspiro[3.5]nonan-7-yl)-3-(trifluoromethyl)phenyl)amino)-5-chloropyrimidin-4-yl)amino)phenyl)dimethylphosphine oxide] | – | – | – | – | 16 | 10 to 50 | 10 to 50 | – | – | –
CNC1CC2(CCN(c3ccc(Nc4ncc(Cl)c(Nc5ccccc5P(C)(C)=O)n4)cc3Cl)CC2)C1 [Example 20, (2-((5-chloro-2-((3-chloro-4-(2-(methylamino)-7-azaspiro[3.5]nonan-7-yl)phenyl)amino)pyrimidin-4-yl)amino)phenyl)dimethylphosphine oxide] | – | – | – | – | 2.3 | 10 to 50 | 10 to 50 | – | – | –
CN(C)C1CC2(CCN(c3ccc(Nc4ncc(Cl)c(Nc5ccccc5P(C)(C)=O)n4)cc3F)CC2)C1 [Example 30, (2-((5-chloro-2-((4-(2-(dimethylamino)-7-azaspiro[3.5]nonan-7-yl)-3-fluorophenyl)amino)pyrimidin-4-yl)amino)phenyl)dimethylphosphine oxide] | – | – | – | – | 1.1 | ≤ 10 | 10 to 50 | 30 | – | –
